Laboratory results taken from patent US20240132431A1, “METHOD FOR ALKYLATING ACIDIC FUNCTIONAL GROUP” (Chugai Seiyaku Kabushiki Kaisha, priority 2021, published 2024).
Like-named read-outs stand apart in the source and are kept apart here.

Experiments:
human Bcl-2 protein = target: T1, human Bcl-2 protein (Homo sapiens, UniProt P10415); test: Binding evaluation of compounds to Bcl-2 by surface plasmon resonance (SPR); conditions: for equilibrium dissociation constant KD compared to compound B2Q045-01: binding to Bcl-2
T1 construct: purchased Novus Biologicals
Experimental: In order to analyze the binding affinity of the compounds shown in [Table AK-O1] and synthesized in Example 8 to Bcl-2, the surface plasmon resonance method was used. Biacore T200 (GE Healthcare) was used as the apparatus, and HBS (10 mM HEPES-NaOH, 150 mM NaCl, pH 7.4) to which 1 mM DTT, 3 mM EDTA, 0.01% Tween 20, and 4% DMSO had been added was used as the running buffer. The human Bcl-2 protein (Novus Biologicals) was biotinylated using EZ-Link Sulfo-NHS-LC-LC-biotin (Thermofisher scientific) and immobilized on the surface of Sensor Chip SA (GE Healthcare). Thereafter, compound solutions of multiple concentrations and the running buffer (blank) were added to the Bcl-2 immobilized surface to obtain the binding response of the compounds. The measurement was carried out at 15° C.

[1] = target: T2, Bcl-2 protein (Recombinant Human Bcl-2 Protein) (Homo sapiens, UniProt P10415); test: Binding evaluation of mixture library compounds to Bcl-2 using AS-MS (affinity selection mass spectrometry); conditions: for ASMS ratio (%) n = 1 / ASMS ratio (%) n = 2: AS-MS, Bcl-2, ASMS Ratio(%)=(A−C)/B×100; for ASMS ratio (%) n = 1: replicate n = 1; for ASMS ratio (%) n = 2: replicate n = 2; for ASMS ratio (%): (A−C)/B×100, 1200-compound mixture, Bcl-2 20 μM
T2 construct: purchased Novus NBP2-34889
In short: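 ASMS Ratio (%) was calculated as (A−C)/B×100, where A is the protein sample after SEC, B the protein-free sample without SEC and C the protein-free sample after SEC. Each compound was at […] in a 1200-member pool with 20 μM Bcl-2, incubated 1 h at 23° C.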

[2] = Biacore T200, biotinylated human Bcl-2 immobilized on Sensor Chip SA, 15° C., compounds found by AS-MS evaluation of synthesized library
[3] = binding to Bcl-2, compounds evaluated before library synthesis, read-out: KD
[4] = Biacore T200, biotinylated human Bcl-2 immobilized on Sensor Chip SA, 15° C., compounds found by AS-MS evaluation of synthesized library, read-out: Equilibrium dissociation constant KD

T1 sequence (P10415 whole entry): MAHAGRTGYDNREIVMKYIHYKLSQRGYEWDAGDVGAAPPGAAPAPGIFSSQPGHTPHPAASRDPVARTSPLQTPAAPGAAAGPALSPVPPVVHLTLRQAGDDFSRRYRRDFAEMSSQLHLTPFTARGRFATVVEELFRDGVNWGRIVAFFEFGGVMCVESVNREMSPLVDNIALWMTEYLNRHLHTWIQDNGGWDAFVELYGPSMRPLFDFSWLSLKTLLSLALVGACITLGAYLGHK
T2 sequence (P10415 whole entry): as above

Row | SMILES | Equilibrium dissociation constant KD (human Bcl-2 protein; [2]) | ASMS ratio (%) n = 1 ([1]; mixture of 1200 compounds) [%] | ASMS ratio (%) n = 2 ([1]; mixture of 1200 compounds) [%] | ASMS ratio (%) ([1]; first value in parentheses) | ASMS ratio (%) ([1]; second value in parentheses) | ASMS ratio (%) n = 1 ([1]; mixture library) [%] | ASMS ratio (%) n = 2 ([1]; mixture library) [%] | Kd (human Bcl-2 protein; [3]) [nM] | Kd (human Bcl-2 protein; [4]) [nM] | equilibrium dissociation constant KD compared to compound B2Q045-01 (human Bcl-2 protein)
1 | CCOc1cccc(-c2ccc(CN3CCN(c4ccc(C(=O)NCC56CC7CC(CC(C7)C5)C6)nn4)CC3)c(CC)c2)c1 [B1A075-01, N-(1-adamantylmethyl)-6-[4-[[4-(3-ethoxyphenyl)-2-ethylphenyl]methyl]piperazin-1-yl]pyridazine-3-carboxamide] | Binding not observed | 31.3 | 28.6 | 31.3 | 28.6 | – | – | – | – | –
2 | CCOc1cncc(-c2ccccc2CCC(=O)N2CCN(c3ccc(C(=O)NS(=O)(=O)c4ccc(NCCSc5ccccc5)c([N+](=O)[O-])c4)nn3)CC2)c1 [B2Q012-01, 6-[4-[3-[2-(5-ethoxypyridin-3-yl)phenyl]propanoyl]piperazin-1-yl]-N-[3-nitro-4-(2-phenylsulfanylethylamino)phenyl]sulfonylpyridazine-3-carboxamide] | Bound | – | – | 21.4 | 22.5 | 21.4 | 22.5 | – | – | –
3 | CCOc1cccc(-c2ccccc2CN2CCN(c3ccc(C(=O)NS(=O)(=O)c4ccc(NCCSc5ccccc5)c([N+](=O)[O-])c4)cc3)CC2)c1 [B2Q045-01, 4-[4-[[2-(3-ethoxyphenyl)phenyl]methyl]piperazin-1-yl]-N-[3-nitro-4-(2-phenylsulfanylethylamino)phenyl]sulfonylbenzamide] | – | – | – | 49.9 | 49.9 | 49.9 | 49.9 | 1200 | – | –
4 | CCOc1cncc(-c2ccccc2CN2CCN(c3ccc(C(=O)NS(=O)(=O)c4ccc(NCCSc5ccccc5)c([N+](=O)[O-])c4)cc3)CC2)c1 [B2Q046-01, 4-[4-[[2-(5-ethoxypyridin-3-yl)phenyl]methyl]piperazin-1-yl]-N-[3-nitro-4-(2-phenylsulfanylethylamino)phenyl]sulfonylbenzamide] | – | – | – | 20.3 | 20.5 | 20.3 | 20.5 | 8100 | – | –
5 | CCOc1cccc(-c2ccc(CN3CCN(c4ccc(C(=O)NS(=O)(=O)c5ccc(NCCSc6ccccc6)c([N+](=O)[O-])c5)cc4)CC3)cc2C)c1 [B2Q047-01, 4-[4-[[4-(3-ethoxyphenyl)-3-methylphenyl]methyl]piperazin-1-yl]-N-[3-nitro-4-(2-phenylsulfanylethylamino)phenyl]sulfonylbenzamide] | – | – | – | 142.5 | 326.4 | 142.5 | 326.4 | – | 700 | smaller equilibrium dissociation constants KD
6 | CCOc1cncc(-c2ccc(CN3CCN(c4ccc(C(=O)NS(=O)(=O)c5ccc(NCCSc6ccccc6)c([N+](=O)[O-])c5)cc4)CC3)cc2C)c1 [B2Q048-01, 4-[4-[[4-(5-ethoxypyridin-3-yl)-3-methylphenyl]methyl]piperazin-1-yl]-N-[3-nitro-4-(2-phenylsulfanylethylamino)phenyl]sulfonylbenzamide] | – | – | – | 61.6 | 90.8 | 61.6 | 90.8 | – | 480 | smaller equilibrium dissociation constants KD
7 | CCOc1cccc(-c2ccc(CN3CCN(c4ccc(C(=O)NS(=O)(=O)c5ccc(NCCSc6ccccc6)c([N+](=O)[O-])c5)cc4)CC3)c(OC)c2)c1 [B2Q053-01, 4-[4-[[4-(3-ethoxyphenyl)-2-methoxyphenyl]methyl]piperazin-1-yl]-N-[3-nitro-4-(2-phenylsulfanylethylamino)phenyl]sulfonylbenzamide] | Binding not observed | – | – | 22.4 | 15.5 | 22.4 | 15.5 | – | – | –
8 | CCOc1cncc(-c2ccc(CN3CCN(c4ccc(C(=O)NS(=O)(=O)c5ccc(NCCSc6ccccc6)c([N+](=O)[O-])c5)cc4)CC3)c(OC)c2)c1 [B2Q054-01, 4-[4-[[4-(5-ethoxypyridin-3-yl)-2-methoxyphenyl]methyl]piperazin-1-yl]-N-[3-nitro-4-(2-phenylsulfanylethylamino)phenyl]sulfonylbenzamide] | – | – | – | 44.1 | 65.0 | 44.1 | 65.0 | – | 1270 | –
9 | CCOc1cncc(-c2ccc(CN3CCN(c4ccc(C(=O)NS(=O)(=O)c5ccc(NCCSc6ccccc6)c([N+](=O)[O-])c5)cc4)CC3)c3ccccc23)c1 [B2Q066-01, 4-[4-[[4-(5-ethoxypyridin-3-yl)naphthalen-1-yl]methyl]piperazin-1-yl]-N-[3-nitro-4-(2-phenylsulfanylethylamino)phenyl]sulfonylbenzamide] | – | – | – | 40.7 | 36.9 | 40.7 | 36.9 | – | 950 | –
10 | CCOc1cccc(-c2ccc(C(C)N3CCN(c4ccc(C(=O)NS(=O)(=O)c5ccc(NCCSc6ccccc6)c([N+](=O)[O-])c5)cc4)CC3)cc2)c1 (stereo not shown) [B2Q097-01, 4-[4-[1-[4-(3-ethoxyphenyl)phenyl]ethyl]piperazin-1-yl]-N-[3-nitro-4-(2-phenylsulfanylethylamino)phenyl]sulfonylbenzamide] | Binding not observed | – | – | 142.5 | 326.4 | 142.5 | 326.4 | – | – | –
11 | CCOc1cncc(-c2ccc(C(C)N3CCN(c4ccc(C(=O)NS(=O)(=O)c5ccc(NCCSc6ccccc6)c([N+](=O)[O-])c5)cc4)CC3)cc2)c1 (stereo not shown) [B2Q098-01, 4-[4-[1-[4-(5-ethoxypyridin-3-yl)phenyl]ethyl]piperazin-1-yl]-N-[3-nitro-4-(2-phenylsulfanylethylamino)phenyl]sulfonylbenzamide] | Binding not observed | – | – | 61.6 | 90.8 | 61.6 | 90.8 | – | – | –
12 | CCOc1cncc(-c2ccc(CN3CCN(c4ccc(C(=O)N(CC)CC)nn4)CC3)c3ccccc23)c1 [B4J092-01, 6-[4-[[4-(5-Ethoxypyridin-3-yl)naphthalen-1-yl]methyl]piperazin-1-yl]-N,N-diethylpyridazine-3-carboxamide] | – | – | – | – | – | −1.4 | 0.3 | – | – | –
13 | CCOc1cccc(-c2csc(CN3CCN(c4ccc(C(=O)N(CC)CC)nn4)CC3)c2)c1 [B4J093-01] | – | – | – | – | – | −2.1 | 0.6 | – | – | –
14 | CCOc1cncc(-c2csc(CN3CCN(c4ccc(C(=O)N(CC)CC)nn4)CC3)c2)c1 [B4J094-01] | – | – | – | – | – | −1.3 | 0.1 | – | – | –
15 | CCOc1cccc(C#Cc2ccccc2CN2CCN(c3ccc(C(=O)N(CC)CC)nn3)CC2)c1 [B4J095-01, 6-[4-[[2-[2-(3-Ethoxyphenyl)ethynyl]phenyl]methyl]piperazin-1-yl]-N,N-diethylpyridazine-3-carboxamide] | – | – | – | – | – | 1.5 | 0.0 | – | – | –
16 | CCOc1cncc(C#Cc2ccccc2CN2CCN(c3ccc(C(=O)N(CC)CC)nn3)CC2)c1 [B4J096-01] | – | – | – | – | – | – | 0.0 | – | – | –
17 | CCOc1cccc(-c2ccc(C(C)N3CCN(c4ccc(C(=O)N(CC)CC)cc4)CC3)cc2)c1 (stereo not shown) [B4J097-01, 4-[4-[1-[4-(3-Ethoxyphenyl)phenyl]ethyl]piperazin-1-yl]-N,N-diethylbenzamide] | – | – | – | – | – | −0.9 | −0.4 | – | – | –
18 | CCOc1cncc(-c2ccc(C(C)N3CCN(c4ccc(C(=O)N(CC)CC)cc4)CC3)cc2)c1 (stereo not shown) [B4J098-01, 4-[4-[1-[4-(5-Ethoxypyridin-3-yl)phenyl]ethyl]piperazin-1-yl]-N,N-diethylbenzamide] | – | – | – | – | – | −2.0 | −0.2 | – | – | –
19 | CCOc1cccc(-c2ccc(C(C)N3CCN(c4ccc(C(=O)N(CC)CC)cc4)CC3)c(F)c2)c1 (stereo not shown) [B4J099-01, 4-[4-[1-[4-(3-Ethoxyphenyl)-2-fluorophenyl]ethyl]piperazin-1-yl]-N,N-diethylbenzamide] | – | – | – | – | – | – | 0.0 | – | – | –
20 | CCOc1cncc(-c2ccc(C(C)N3CCN(c4ccc(C(=O)N(CC)CC)cc4)CC3)c(F)c2)c1 (stereo not shown) [B4J100-01, 4-[4-[1-[4-(5-Ethoxypyridin-3-yl)-2-fluorophenyl]ethyl]piperazin-1-yl]-N,N-diethylbenzamide] | – | – | – | – | – | 0.0 | 0.0 | – | – | –
